Data reported in patent US9708314B2, “Heterocyclic amide compound” (NISSAN CHEMICAL INDUSTRIES, LTD., priority 2013, dated 2017).

Tests used:
Type in all cases: in vivo
[1] = tested on: Echinochloa oryzacola Vasing.; assay: Test Example 2: herbicidal activity, application during weed generation in submerged conditions; conditions: Eighteenth Table; application herbicide amount 320 g/ha
In short: (§1)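 Post-emergence application under submerged conditions: water-diluted emulsion dosed onto the water surface (g/ha) when weeds reach one- to two-leaf stage. Soil flooded to 4 cm; greenhouse 25–30 °C. Herbicidal ratio graded in six classes, 0 (≤5%) to 5 (≥90%), at three weeks.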

[2] = tested on: Monochoria vaginalis; assay: as above; conditions: Eighteenth Table; application herbicide amount 320 g/ha
In short: as §1

[3] = tested on: Scirpus juncoides; assay: as above; conditions: Eighteenth Table; application herbicide amount 320 g/ha
In short: as §1

[4] = tested on: Abutilon theophrasti; assay: Test Example 4: herbicidal effect by application to foliage (diluvial soil, plastic box); conditions: for M: Application herbicide amount 320 g/ha; for M (Abutilon theophrasti) herbicidal effect: application to foliage, application herbicide amount 320 g/ha
In short: (§2)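 Emulsion-formulated compound, diluted to a predetermined g/ha dose, applied by small sprayer to leaves and stems of 14-day-old seedlings grown in sterilized diluvial soil. Effect rated on 0–5 herbicidal-ratio scale three weeks on.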

[5] = tested on: Alopecurus myosuroides; assay: as above; conditions: for J: Application herbicide amount 320 g/ha; for J (Alopecurus myosuroides) herbicidal effect: application to foliage, application herbicide amount 320 g/ha
In short: as §2

[6] = tested on: Apera spica-venti.; assay: as above; conditions: for L: Application herbicide amount 320 g/ha; for L (Apera spica-venti.) herbicidal effect: application to foliage, application herbicide amount 320 g/ha
In short: as §2

[7] = tested on: Avena fatua; assay: as above; conditions: for I: Application herbicide amount 320 g/ha; for I (Avena fatua) herbicidal effect: application to foliage, application herbicide amount 320 g/ha
In short: as §2

[8] = tested on: Chenopodium album; assay: as above; conditions: for O: Application herbicide amount 320 g/ha; for O (Chenopodium album) herbicidal effect: application to foliage, application herbicide amount 320 g/ha
In short: as §2

[9] = tested on: Digitaria ciliaris; assay: as above; conditions: for F: Application herbicide amount 320 g/ha; for F (Digitaria ciliaris) herbicidal effect: application to foliage, application herbicide amount 320 g/ha
In short: as §2

[10] = tested on: Echinochloa crus-galli var. crus-galli; assay: as above; conditions: for H: Application herbicide amount 320 g/ha; for H (Echinochloa crus-galli var. crus-galli) herbicidal effect: application to foliage, application herbicide amount 320 g/ha
In short: as §2

[11] = tested on: Galium spurium; assay: as above; conditions: for Q: Application herbicide amount 320 g/ha; for Q (Galium spurium) herbicidal effect: application to foliage, application herbicide amount 320 g/ha
In short: as §2

[12] = tested on: Lolium multiflorum Lam.; assay: as above; conditions: for K: Application herbicide amount 320 g/ha; for K (Lolium multiflorum Lam.) herbicidal effect: application to foliage, application herbicide amount 320 g/ha
In short: as §2

[13] = tested on: Setaria viridis; assay: as above; conditions: for G: Application herbicide amount 320 g/ha; for G (Setaria viridis) herbicidal effect: application to foliage, application herbicide amount 320 g/ha
In short: as §2

[14] = tested on: Veronica persica; assay: as above; conditions: for R: Application herbicide amount 320 g/ha; for R (Veronica persica) herbicidal effect: application to foliage, application herbicide amount 320 g/ha
In short: as §2

[15] = tested on: Beta vulgaris ssp. vulgaris; assay: Test Example 4: effect on crop by application to foliage (diluvial soil, plastic box); conditions: for f: Application herbicide amount 320 g/ha, effect on crop; for f (Beta vulgaris ssp. vulgaris) effect on crop: application to foliage, application herbicide amount 320 g/ha
In short: as §2

[16] = tested on: Brassica campestris L.; assay: as above; conditions: for g: Application herbicide amount 320 g/ha, effect on crop; for g (Brassica campestris L.) effect on crop: application to foliage, application herbicide amount 320 g/ha
In short: as §2

[17] = tested on: Glycine max; assay: as above; conditions: for c: Application herbicide amount 320 g/ha, effect on crop; for c (Glycine max) effect on crop: application to foliage, application herbicide amount 320 g/ha
In short: as §2

[18] = tested on: Triticum aestivum; assay: as above; conditions: for e: Application herbicide amount 320 g/ha, effect on crop; for e (Triticum aestivum) effect on crop: application to foliage, application herbicide amount 320 g/ha
In short: as §2

[19] = tested on: Zea mays; assay: as above; conditions: for b: Application herbicide amount 320 g/ha, effect on crop; for b (Zea mays) effect on crop: application to foliage, application herbicide amount 320 g/ha
In short: as §2

[20] = tested on: directly sowed Oryza sativa; assay: as above; conditions: for d: Application herbicide amount 320 g/ha, effect on crop; for d (directly sowed Oryza sativa) effect on crop: application to foliage, application herbicide amount 320 g/ha
In short: as §2

Cc1nnc(NC(=O)c2ccc(C(F)(F)F)n3c(-c4cccs4)nnc23)o1 [1-057]
A (Echinochloa oryzicola Vasing.) herbicidal ratio grade [1]: 2 (Herbicidal ratio of 20% or more and less than 40%) | C (Monochoria vaginalis) herbicidal ratio grade [2]: 3 (Herbicidal ratio of 40% or more and less than 70%) | B (Scirpus juncoides) herbicidal ratio grade [3]: 3 (Herbicidal ratio of 40% or more and less than 70%) | M [4]: 5 (Herbicidal ratio of 90% or more (almost completely withered)) | J [5]: 2 (Herbicidal ratio of 20% or more and less than 40%) | L [6]: 2 (Herbicidal ratio of 20% or more and less than 40%) | I [7]: 3 (Herbicidal ratio of 40% or more and less than 70%) | O [8]: 5 (Herbicidal ratio of 90% or more (almost completely withered)) | F [9]: 4 (Herbicidal ratio of 70% or more and less than 90%) | H [10]: 4 (Herbicidal ratio of 70% or more and less than 90%) | Q [11]: 1 (Herbicidal ratio of 5% or more and less than 20%) | K [12]: 2 (Herbicidal ratio of 20% or more and less than 40%) | G [13]: 4 (Herbicidal ratio of 70% or more and less than 90%) | R [14]: 5 (Herbicidal ratio of 90% or more (almost completely withered)) | f [15]: 5 (Herbicidal ratio of 90% or more (almost completely withered)) | g [16]: 3 (Herbicidal ratio of 40% or more and less than 70%) | c [17]: 1 (Herbicidal ratio of 5% or more and less than 20%) | e [18]: 0 (Herbicidal ratio of 5% or less (almost no effect)) | b [19]: 0 (Herbicidal ratio of 5% or less (almost no effect)) | d [20]: 3 (Herbicidal ratio of 40% or more and less than 70%)

COCc1nnc2c(C(=O)Nc3nnc(C)o3)ccc(C(F)(F)F)n12 [1-015]
A (Echinochloa oryzicola Vasing.) herbicidal ratio grade [1]: 4 (Herbicidal ratio of 70% or more and less than 90%) | C (Monochoria vaginalis) herbicidal ratio grade [2]: 1 (Herbicidal ratio of 5% or more and less than 20%) | B (Scirpus juncoides) herbicidal ratio grade [3]: 2 (Herbicidal ratio of 20% or more and less than 40%) | M (Abutilon theophrasti) herbicidal effect [4]: 5 (Herbicidal ratio of 90% or more (almost completely withered)) | J (Alopecurus myosuroides) herbicidal effect [5]: 1 (Herbicidal ratio of 5% or more and less than 20%) | L (Apera spica-venti.) herbicidal effect [6]: 3 (Herbicidal ratio of 40% or more and less than 70%) | I (Avena fatua) herbicidal effect [7]: 3 (Herbicidal ratio of 40% or more and less than 70%) | O (Chenopodium album) herbicidal effect [8]: 5 (Herbicidal ratio of 90% or more (almost completely withered)) | F (Digitaria ciliaris) herbicidal effect [9]: 4 (Herbicidal ratio of 70% or more and less than 90%) | H (Echinochloa crus-galli var. crus-galli) herbicidal effect [10]: 5 (Herbicidal ratio of 90% or more (almost completely withered)) | Q (Galium spurium) herbicidal effect [11]: 3 (Herbicidal ratio of 40% or more and less than 70%) | K (Lolium multiflorum Lam.) herbicidal effect [12]: 1 (Herbicidal ratio of 5% or more and less than 20%) | G (Setaria viridis) herbicidal effect [13]: 3 (Herbicidal ratio of 40% or more and less than 70%) | R (Veronica persica) herbicidal effect [14]: 5 (Herbicidal ratio of 90% or more (almost completely withered)) | f (Beta vulgaris ssp. vulgaris) effect on crop [15]: 5 (Herbicidal ratio of 90% or more (almost completely withered)) | g (Brassica campestris L.) effect on crop [16]: 4 (Herbicidal ratio of 70% or more and less than 90%) | c (Glycine max) effect on crop [17]: 1 (Herbicidal ratio of 5% or more and less than 20%) | e (Triticum aestivum) effect on crop [18]: 2 (Herbicidal ratio of 20% or more and less than 40%) | b (Zea mays) effect on crop [19]: 0 (Herbicidal ratio of 5% or less (almost no effect)) | d (directly sowed Oryza sativa) effect on crop [20]: 4 (Herbicidal ratio of 70% or more and less than 90%)

Cc1nnc(NC(=O)c2ccc(C(F)(F)F)n3c([S+]([O-])C(C)C)nnc23)o1 (centres unmarked) [1-035]
A (Echinochloa oryzicola Vasing.) herbicidal ratio grade [1]: 5 (Herbicidal ratio of 90% or more (almost completely withered)) | C (Monochoria vaginalis) herbicidal ratio grade [2]: 4 (Herbicidal ratio of 70% or more and less than 90%) | B (Scirpus juncoides) herbicidal ratio grade [3]: 4 (Herbicidal ratio of 70% or more and less than 90%) | M (Abutilon theophrasti) herbicidal effect [4]: 5 (Herbicidal ratio of 90% or more (almost completely withered)) | J (Alopecurus myosuroides) herbicidal effect [5]: 2 (Herbicidal ratio of 20% or more and less than 40%) | L (Apera spica-venti.) herbicidal effect [6]: 3 (Herbicidal ratio of 40% or more and less than 70%) | I (Avena fatua) herbicidal effect [7]: 2 (Herbicidal ratio of 20% or more and less than 40%) | O (Chenopodium album) herbicidal effect [8]: 5 (Herbicidal ratio of 90% or more (almost completely withered)) | F (Digitaria ciliaris) herbicidal effect [9]: 5 (Herbicidal ratio of 90% or more (almost completely withered)) | H (Echinochloa crus-galli var. crus-galli) herbicidal effect [10]: 5 (Herbicidal ratio of 90% or more (almost completely withered)) | Q (Galium spurium) herbicidal effect [11]: 2 (Herbicidal ratio of 20% or more and less than 40%) | K (Lolium multiflorum Lam.) herbicidal effect [12]: 2 (Herbicidal ratio of 20% or more and less than 40%) | G (Setaria viridis) herbicidal effect [13]: 5 (Herbicidal ratio of 90% or more (almost completely withered)) | R (Veronica persica) herbicidal effect [14]: 5 (Herbicidal ratio of 90% or more (almost completely withered)) | f (Beta vulgaris ssp. vulgaris) effect on crop [15]: 5 (Herbicidal ratio of 90% or more (almost completely withered)) | g (Brassica campestris L.) effect on crop [16]: 3 (Herbicidal ratio of 40% or more and less than 70%) | c (Glycine max) effect on crop [17]: 3 (Herbicidal ratio of 40% or more and less than 70%) | e (Triticum aestivum) effect on crop [18]: 2 (Herbicidal ratio of 20% or more and less than 40%) | b (Zea mays) effect on crop [19]: 4 (Herbicidal ratio of 70% or more and less than 90%) | d (directly sowed Oryza sativa) effect on crop [20]: 4 (Herbicidal ratio of 70% or more and less than 90%)

Cc1nnc(NC(=O)c2ccc(C(F)(F)F)n3c(N(C)c4ccccc4)nnc23)o1 [1-086]
A (Echinochloa oryzicola Vasing.) herbicidal ratio grade [1]: 4 (Herbicidal ratio of 70% or more and less than 90%) | C (Monochoria vaginalis) herbicidal ratio grade [2]: 4 (Herbicidal ratio of 70% or more and less than 90%) | B (Scirpus juncoides) herbicidal ratio grade [3]: 4 (Herbicidal ratio of 70% or more and less than 90%) | M [4]: 5 (Herbicidal ratio of 90% or more (almost completely withered)) | J [5]: 0 (Herbicidal ratio of 5% or less (almost no effect)) | L [6]: 0 (Herbicidal ratio of 5% or less (almost no effect)) | I [7]: 0 (Herbicidal ratio of 5% or less (almost no effect)) | O [8]: 5 (Herbicidal ratio of 90% or more (almost completely withered)) | F [9]: 5 (Herbicidal ratio of 90% or more (almost completely withered)) | H [10]: 5 (Herbicidal ratio of 90% or more (almost completely withered)) | Q [11]: 1 (Herbicidal ratio of 5% or more and less than 20%) | K [12]: 0 (Herbicidal ratio of 5% or less (almost no effect)) | G [13]: 4 (Herbicidal ratio of 70% or more and less than 90%) | R [14]: 4 (Herbicidal ratio of 70% or more and less than 90%) | f [15]: 5 (Herbicidal ratio of 90% or more (almost completely withered)) | g [16]: 4 (Herbicidal ratio of 70% or more and less than 90%) | c [17]: 1 (Herbicidal ratio of 5% or more and less than 20%) | e [18]: 0 (Herbicidal ratio of 5% or less (almost no effect)) | b [19]: 1 (Herbicidal ratio of 5% or more and less than 20%) | d [20]: 1 (Herbicidal ratio of 5% or more and less than 20%)
